Patent US12060347B2 (BRISTOL-MYERS SQUIBB COMPANY, priority 2016, dated 2024)

Biological target: T1, human PAR4 (Homo sapiens, UniProt Q96RI0)
T1 construct: expressed in transfected cells; host or cells: HEK293 PAR4 Clone 1.2A (BMS Arctic ID 383940)
T1 sequence (Q96RI0 18-385): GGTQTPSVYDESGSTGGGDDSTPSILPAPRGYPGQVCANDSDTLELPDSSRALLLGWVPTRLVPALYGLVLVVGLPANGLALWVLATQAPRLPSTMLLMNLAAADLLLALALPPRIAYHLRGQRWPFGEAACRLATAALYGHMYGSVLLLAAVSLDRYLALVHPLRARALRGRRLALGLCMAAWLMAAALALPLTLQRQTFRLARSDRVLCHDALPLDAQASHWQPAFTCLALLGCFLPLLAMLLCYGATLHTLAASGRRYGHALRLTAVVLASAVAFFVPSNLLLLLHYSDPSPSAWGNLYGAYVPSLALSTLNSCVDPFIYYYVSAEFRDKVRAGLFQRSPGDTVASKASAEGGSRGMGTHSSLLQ
Assay: PAR4 FLIPR assay: antagonism of agonist-peptide-induced calcium mobilization in PAR4-expressing HEK293 cells
Assay type: cell-based
Conditions: H-Ala-Phe(4-F)-[…]NH2-induced intracellular calcium mobilization, 11-point curves

How did the IC50 turn out when `COc1cnc2c(-c3nc4cc(F)c(O[C@@H](C)[C@@H](C)OC(=O)Nc5ccc(C(=O)NCCC(C)(C)O)nc5)cc4s3)cc(C)cc2n1` [Example 446, (2R,3S)-3-((5-fluoro-2-(2-methoxy-7-methylquinoxalin-5-yl)benzo[d]thiazol-6-yl)oxy)butan-2-yl (6-((3-hydroxy-3-methylbutyl)carbamoyl)pyridin-3-yl)carbamate] was run?
Its IC50 is 2.3 nM.

With `COc1cnc2c(-c3nc4cc(F)c(OC[C@@H](C)OC(=O)Nc5ccnc(C(=O)N(C)C)c5)cc4s3)cc(C)cc2n1` [Example 447, (R)-1-((5-fluoro-2-(2-methoxy-7-methylquinoxalin-5-yl)benzo[d]thiazol-6-yl)oxy)propan-2-yl (2-(dimethylcarbamoyl)pyridin-4-yl)carbamate] as the compound, how does the IC50 read?
Its IC50 is 21 nM.

For `COc1cnc2c(-c3nc4cc(F)c(OC[C@@H](C)OC(=O)Nc5ccc(C(=O)NCC(C)(C)O)nc5)cc4s3)cc(C)cc2n1` [Example 448, (R)-1-((5-fluoro-2-(2-methoxy-7-methylquinoxalin-5-yl)benzo[d]thiazol-6-yl)oxy)propan-2-yl (6-((2-hydroxy-2-methylpropyl)carbamoyl)pyridin-3-yl)carbamate], which IC50 is on record?
Its IC50 is 2.1 nM.

For `COc1cnc2c(-c3nc4cc(F)c(OC[C@@H](C)OC(=O)Nc5ccc(C(=O)NC[C@@H](C)O)nc5)cc4s3)cc(C)cc2n1` [Example 449, (R)-1-((5-fluoro-2-(2-methoxy-7-methylquinoxalin-5-yl)benzo[d]thiazol-6-yl)oxy)propan-2-yl (6-(((R)-2-hydroxypropyl)carbamoyl)pyridin-3-yl)carbamate], which IC50 is on record?
The IC50 was 0.3 nM.

How did the IC50 turn out when `COc1cnc2c(-c3nc4cc(F)c(OC[C@@H](C)OC(=O)Nc5ccc(C(=O)NC[C@H](C)O)nc5)cc4s3)cc(C)cc2n1` [Example 450, (R)-1-((5-fluoro-2-(2-methoxy-7-methylquinoxalin-5-yl)benzo[d]thiazol-6-yl)oxy)propan-2-yl (6-(((S)-2-hydroxypropyl)carbamoyl)pyridin-3-yl)carbamate] was run?
Its IC50 is 0.5 nM.

With `COc1cnc2c(-c3nc4cc(F)c(O[C@@H](C)[C@@H](C)OC(=O)Nc5ccnc(C(=O)NCCO)c5)cc4s3)cc(C)cc2n1` [Example 451, (2R,3S)-3-((5-fluoro-2-(2-methoxy-7-methylquinoxalin-5-yl)benzo[d]thiazol-6-yl)oxy)butan-2-yl (2-((2-hydroxyethyl)carbamoyl)pyridin-4-yl)carbamate] as the compound, how does the IC50 read?
Its IC50 is 0.7 nM.

For `COc1cnc2c(-c3nc4cc(F)c(O[C@@H](C)[C@@H](C)OC(=O)Nc5ccnc(C(=O)NC[C@@H](C)O)c5)cc4s3)cc(C)cc2n1` [Example 452, (2R,3S)-3-((5-fluoro-2-(2-methoxy-7-methylquinoxalin-5-yl)benzo[d]thiazol-6-yl)oxy)butan-2-yl (2-(((R)-2-hydroxypropyl)carbamoyl)pyridin-4-yl)carbamate], which IC50 is on record?
Its IC50 is 0.4 nM.

With `COc1cnc2c(-c3nc4cc(F)c(O[C@@H](C)[C@@H](C)OC(=O)Nc5ccnc(C(N)=O)c5)cc4s3)cc(C)cc2n1` [Example 453, (2R,3S)-3-((5-fluoro-2-(2-methoxy-7-methylquinoxalin-5-yl)benzo[d]thiazol-6-yl)oxy)butan-2-yl (2-carbamoylpyridin-4-yl)carbamate] as the compound, how does the IC50 read?
The IC50 was 0.6 nM.

How did the IC50 turn out when `COc1cnc2c(-c3nc4cc(F)c(O[C@@H](C)[C@@H](C)OC(=O)Nc5cnc(C(N)=O)nc5)cc4s3)cc(C)cc2n1` [Example 454, (2R,3S)-3-((5-fluoro-2-(2-methoxy-7-methylquinoxalin-5-yl)benzo[d]thiazol-6-yl)oxy)butan-2-yl (2-carbamoylpyrimidin-5-yl)carbamate] was run?
Its IC50 is 1.3 nM.

Which IC50 does the source give for `COc1cnc2c(-c3nc4cc(F)c(O[C@@H](C)[C@@H](C)OC(=O)Nc5cnc(C(=O)NCCO)nc5)cc4s3)cc(C)cc2n1` [Example 455, (2R,3S)-3-((5-fluoro-2-(2-methoxy-7-methylquinoxalin-5-yl)benzo[d]thiazol-6-yl)oxy)butan-2-yl (2-((2-hydroxyethyl)carbamoyl)pyrimidin-5-yl)carbamate] here?
The IC50 was 0.8 nM.

For `COc1cnc2c(-c3nc4cc(F)c(O[C@@H](C)[C@@H](C)OC(=O)Nc5cnc(C(=O)NCC(C)(C)O)nc5)cc4s3)cc(C)cc2n1` [Example 457, (2R,3S)-3-((5-fluoro-2-(2-methoxy-7-methylquinoxalin-5-yl)benzo[d]thiazol-6-yl)oxy)butan-2-yl (2-((2-hydroxy-2-methylpropyl)carbamoyl)pyrimidin-5-yl)carbamate], which IC50 is on record?
The IC50 was 0.4 nM.

With `COc1cnc2c(-c3nc4cc(F)c(O[C@@H](C)[C@@H](C)OC(=O)Nc5cnc(C(=O)NCCC(C)(C)O)nc5)cc4s3)cc(C)cc2n1` [Example 458, (2R,3S)-3-((5-fluoro-2-(2-methoxy-7-methylquinoxalin-5-yl)benzo[d]thiazol-6-yl)oxy)butan-2-yl (2-((3-hydroxy-3-methylbutyl)carbamoyl)pyrimidin-5-yl)carbamate] as the compound, how does the IC50 read?
The IC50 was 0.5 nM.

For `COc1cnc2c(-c3nc4cc(F)c(O[C@@H](C)[C@@H](C)OC(=O)Nc5ccnc(C(=O)NCCC(C)(C)O)c5)cc4s3)cc(C)cc2n1` [Example 459, (2R,3S)-3-((5-fluoro-2-(2-methoxy-7-methylquinoxalin-5-yl)benzo[d]thiazol-6-yl)oxy)butan-2-yl (2-((3-hydroxy-3-methylbutyl)carbamoyl)pyridin-4-yl)carbamate], which IC50 is on record?
The IC50 was 0.9 nM.

How did the IC50 turn out when `COc1cnc2c(-c3nc4cc(F)c(O[C@@H](C)[C@@H](C)OC(=O)Nc5ccc(C(=O)NCC(C)(C)O)nc5)cc4s3)cc(C)cc2n1` [Example 460, (2R,3S)-3-((5-fluoro-2-(2-methoxy-7-methylquinoxalin-5-yl)benzo[d]thiazol-6-yl)oxy)butan-2-yl (6-((2-hydroxy-2-methylpropyl)carbamoyl)pyridin-3-yl)carbamate] was run?
Its IC50 is 0.9 nM.

`COc1cnc2c(-c3nc4cc(F)c(O[C@@H](C)[C@@H](C)OC(=O)Nc5ccnc(C(=O)NC[C@H](C)O)c5)cc4s3)cc(C)cc2n1` [Example 461, (2R,3S)-3-((5-fluoro-2-(2-methoxy-7-methylquinoxalin-5-yl)benzo[d]thiazol-6-yl)oxy)butan-2-yl (2-(((S)-2-hydroxypropyl)carbamoyl)pyridin-4-yl)carbamate] was tested. Which IC50 did it give?
Its IC50 is 0.4 nM.

With `COc1cnc2c(-c3nc4cc(F)c(O[C@@H](C)[C@@H](C)OC(=O)Nc5cnc(C(=O)NC[C@H](C)O)nc5)cc4s3)cc(C)cc2n1` [Example 462, (2R,3S)-3-((5-fluoro-2-(2-methoxy-7-methylquinoxalin-5-yl)benzo[d]thiazol-6-yl)oxy)butan-2-yl (2-(((S)-2-hydroxypropyl)carbamoyl)pyrimidin-5-yl)carbamate] as the compound, how does the IC50 read?
The IC50 was 0.2 nM.

With `COc1cnc2c(-c3nc4cc(F)c(O[C@@H](C)[C@@H](C)OC(=O)Nc5cnc(C(=O)NCC6(O)CCC6)nc5)cc4s3)cc(C)cc2n1` [Example 463, (2R,3S)-3-((5-fluoro-2-(2-methoxy-7-methylquinoxalin-5-yl)benzo[d]thiazol-6-yl)oxy)butan-2-yl (2-(((1-hydroxycyclobutyl)methyl)carbamoyl)pyrimidin-5-yl)carbamate] as the compound, how does the IC50 read?
The IC50 was 0.7 nM.

How did the IC50 turn out when `COc1cnc2c(-c3nc4cc(F)c(O[C@@H](C)[C@@H](C)OC(=O)Nc5ccc(C(=O)NCCC(C)(C)O)nc5)cc4s3)cc(C)cc2n1` [Example 464, (2R,3S)-3-((5-fluoro-2-(2-methoxy-7-methylquinoxalin-5-yl)benzo[d]thiazol-6-yl)oxy)butan-2-yl (6-((3-hydroxy-3-methylbutyl)carbamoyl)pyridin-3-yl)carbamate] was run?
Its IC50 is 1.5 nM.
